# Target: LRRK2 G2019S (Homo sapiens, UniProt Q5S007, G2019S)
# Test: LRRK2 G2019S Km ATP LanthaScreen assay
# Format: biochemical
# Settings: for IC50: read-out: LRRK2 pIC50 (converted)
# Method: Unless otherwise noted, all reactions are magnetically stirred. Unless otherwise noted, when diethyl ether is used in the experiments described below, it is Fisher ACS certified material and is stabilized with BHT. Unless otherwise noted, “concentrated” and/or “solvent removed under reduced pressure” means evaporating the solvent from a solution or mixture using a rotary evaporator or vacuum pump. Unless otherwise noted, flash chromatography is carried out on a Teledyne Isco (Lincoln, NE), Analogix (Burlington, WI), or Biotage (Stockholm, SWE) automated chromatography system using a commercially available cartridge as the column. Columns may be purchased from Teledyne Isco, Analogix, Biotage, Varian (Palo Alto, CA), or Supelco (Bellefonte, PA) and are usually filled with silica gel as the stationary phase. Reverse phase prep-HPLC conditions, where used, can be found at the end of each experimental section. Aqueous solutions were concentrated on a Genevac (Ipswich, ENG) or by freeze-drying/lyophilization.
# Sequence of LRRK2 G2019S (Q5S007 whole entry G2019S): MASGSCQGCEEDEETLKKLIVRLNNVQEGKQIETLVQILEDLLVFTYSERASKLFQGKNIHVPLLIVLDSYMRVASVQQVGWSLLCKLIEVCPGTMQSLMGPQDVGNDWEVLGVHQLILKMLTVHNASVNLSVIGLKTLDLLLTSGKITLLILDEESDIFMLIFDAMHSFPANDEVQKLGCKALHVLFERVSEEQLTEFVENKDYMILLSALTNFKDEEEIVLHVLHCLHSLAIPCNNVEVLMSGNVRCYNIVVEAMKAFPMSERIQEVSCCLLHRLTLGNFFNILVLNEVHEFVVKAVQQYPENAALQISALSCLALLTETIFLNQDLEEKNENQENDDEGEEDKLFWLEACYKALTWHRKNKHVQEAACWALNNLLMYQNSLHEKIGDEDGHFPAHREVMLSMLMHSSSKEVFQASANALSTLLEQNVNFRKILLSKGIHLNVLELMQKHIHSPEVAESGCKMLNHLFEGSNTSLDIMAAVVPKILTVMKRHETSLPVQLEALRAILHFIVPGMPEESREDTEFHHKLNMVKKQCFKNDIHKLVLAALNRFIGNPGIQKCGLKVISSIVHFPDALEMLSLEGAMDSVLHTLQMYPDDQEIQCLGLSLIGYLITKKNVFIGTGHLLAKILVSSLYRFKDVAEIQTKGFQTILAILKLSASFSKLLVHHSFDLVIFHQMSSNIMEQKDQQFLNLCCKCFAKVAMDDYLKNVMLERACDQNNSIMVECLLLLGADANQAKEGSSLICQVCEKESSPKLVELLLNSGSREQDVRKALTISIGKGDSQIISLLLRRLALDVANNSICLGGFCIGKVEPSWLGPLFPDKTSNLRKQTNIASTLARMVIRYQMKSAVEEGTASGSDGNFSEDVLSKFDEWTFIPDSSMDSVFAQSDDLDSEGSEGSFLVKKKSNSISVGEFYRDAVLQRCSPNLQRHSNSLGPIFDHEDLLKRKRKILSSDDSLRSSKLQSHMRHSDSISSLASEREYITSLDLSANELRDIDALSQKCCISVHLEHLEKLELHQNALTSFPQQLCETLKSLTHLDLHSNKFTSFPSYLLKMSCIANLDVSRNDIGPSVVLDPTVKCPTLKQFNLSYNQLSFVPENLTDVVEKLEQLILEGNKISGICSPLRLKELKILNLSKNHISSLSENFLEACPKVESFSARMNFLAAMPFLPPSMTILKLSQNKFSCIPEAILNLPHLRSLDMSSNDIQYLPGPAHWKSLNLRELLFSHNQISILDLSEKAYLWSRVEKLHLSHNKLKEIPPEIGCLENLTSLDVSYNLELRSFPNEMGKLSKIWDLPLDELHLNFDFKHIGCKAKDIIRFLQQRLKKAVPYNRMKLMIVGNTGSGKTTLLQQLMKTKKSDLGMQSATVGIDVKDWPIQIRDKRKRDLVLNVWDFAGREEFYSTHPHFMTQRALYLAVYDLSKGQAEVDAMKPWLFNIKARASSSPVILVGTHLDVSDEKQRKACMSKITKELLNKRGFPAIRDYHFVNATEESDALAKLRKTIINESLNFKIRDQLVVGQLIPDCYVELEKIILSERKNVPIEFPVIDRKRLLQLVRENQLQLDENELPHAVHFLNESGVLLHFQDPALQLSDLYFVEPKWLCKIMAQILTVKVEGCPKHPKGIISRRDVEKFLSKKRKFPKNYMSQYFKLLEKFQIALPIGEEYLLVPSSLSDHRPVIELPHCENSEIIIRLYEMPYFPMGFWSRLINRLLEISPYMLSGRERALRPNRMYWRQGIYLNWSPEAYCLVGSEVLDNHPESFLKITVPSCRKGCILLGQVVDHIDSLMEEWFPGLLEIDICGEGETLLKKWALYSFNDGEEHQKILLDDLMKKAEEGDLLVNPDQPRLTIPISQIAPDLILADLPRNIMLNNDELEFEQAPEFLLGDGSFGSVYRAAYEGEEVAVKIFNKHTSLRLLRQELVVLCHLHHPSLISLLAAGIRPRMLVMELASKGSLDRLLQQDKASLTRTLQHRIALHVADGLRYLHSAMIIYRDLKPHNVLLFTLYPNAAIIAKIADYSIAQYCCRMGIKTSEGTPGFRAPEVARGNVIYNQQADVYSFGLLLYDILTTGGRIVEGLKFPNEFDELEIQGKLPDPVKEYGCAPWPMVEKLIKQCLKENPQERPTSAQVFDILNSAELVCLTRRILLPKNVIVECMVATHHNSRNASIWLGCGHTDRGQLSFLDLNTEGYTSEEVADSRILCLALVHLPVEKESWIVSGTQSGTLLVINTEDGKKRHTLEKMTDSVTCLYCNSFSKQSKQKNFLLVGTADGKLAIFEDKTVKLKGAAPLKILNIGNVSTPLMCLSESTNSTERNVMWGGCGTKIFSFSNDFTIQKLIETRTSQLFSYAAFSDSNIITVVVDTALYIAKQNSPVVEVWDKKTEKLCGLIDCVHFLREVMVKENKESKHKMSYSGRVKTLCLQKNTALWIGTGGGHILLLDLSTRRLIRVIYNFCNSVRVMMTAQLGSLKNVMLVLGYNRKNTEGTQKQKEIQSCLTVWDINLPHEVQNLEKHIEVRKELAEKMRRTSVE
Structure (SMILES),IC50,LRRK2 pIC50
"CC1C(C(=O)Nc2cc3cc(C4CCN(C5(C)COCC5O)CC4)c(Cl)cc3cn2)C1c1ccccn1 (single isomer, unassigned) [Ex-4.54, N-(7-chloro-6-(1-(4-hydroxy-3-methyltetrahydrofuran-3-yl)piperidin-4-yl)isoquinolin-3-yl)-2-methyl-3-(pyridin-2-yl)cyclopropane-1-carboxamide]",9.12 nM,
"CC1(N2CCC(c3cc4cc(NC(=O)C5C6CCCC65)ncc4cc3Cl)CC2)COCC1O (single isomer, unassigned) [Ex-1.20, N-(7-chloro-6-(1-((3R,4R or 3S,4S)-4-hydroxy-3-methyltetrahydrofuran-3-yl)piperidin-4-yl)isoquinolin-3-yl)bicyclo[3.1.0]hexane-6-carboxamide]",0.182 nM,
"CC1(N2CCC(c3cc4cc(NC(=O)C5CC56CCOCC6)ncc4cc3Cl)C(F)C2)COCC1O (single isomer, unassigned) [Ex-14.4, N-(7-chloro-6-(3-fluoro-1-(4-hydroxy-3-methyltetrahydrofuran-3-yl)piperidin-4-yl)isoquinolin-3-yl)-6-oxaspiro[2.5]octane-1-carboxamide]",0.186 nM,
"Cc1cc2cnc(NC(=O)C3CC3C(C)(C)F)cc2cc1C1CCN(C2(C)COCC2O)CC1 (single isomer, unassigned) [Ex-15.5, 2-(2-fluoropropan-2-yl)-N-(6-(1-(4-hydroxy-3-methyltetrahydrofuran-3-yl)piperidin-4-yl)-7-methylisoquinolin-3-yl)cyclopropane-1-carboxamide]",21.4 nM,
"CC1(N2CCC(c3cc4cc(NC(=O)c5cnn(C6CC6)c5)ncc4cc3Cl)CC2)COCC1O (single isomer, unassigned) [Ex-1.48, N-(7-chloro-6-(1-((3R,4R or 3S,4S)-4-hydroxy-3-methyltetrahydrofuran-3-yl)piperidin-4-yl)isoquinolin-3-yl)-1-cyclopropyl-1H-pyrazole-4-carboxamide]",55 nM,
Cn1cc(C2CC2C(=O)Nc2cc3cc(C4CCN(C5(C)COCC5O)CC4)c(Cl)cc3cn2)cn1 (stereo not shown) [Ex-2.37],0.0813 nM,
"CC1(N2CCC(c3cc4cc(NC(=O)C5CC56CCOC6)ncc4cc3Cl)CC2)COCC1F (single isomer, unassigned) [Ex-6.3, (R or S)-N-(7-chloro-6-(1-((3R,4R or 3S,4S)-4-fluoro-3-methyltetrahydrofuran-3-yl)piperidin-4-yl)isoquinolin-3-yl)-5-oxaspiro [2.4] heptane-1-carboxamide]",0.0813 nM,
"CC1(N2CCC(c3cc4cc(NC(=O)C5CC56CCOCC6)ncc4cc3Cl)CC2)CCOCC1F (single isomer, unassigned) [Ex-12.1, N-(7-chloro-6-(1-((3R,4R or 3S,4S)-3-fluoro-4-methyltetrahydro-2H-pyran-4-yl)piperidin-4-yl)isoquinolin-3-yl)-6-oxaspiro[2.5]octane-1-carboxamide]",41.7 nM,
"COC1COCC1N1CCC(c2cc3cc(NC(=O)C4CC45CCOCC5)ncc3cc2Cl)CC1 (single isomer, unassigned) [Ex-6.53, N-(7-chloro-6-(1-(4-methoxytetrahydrofuran-3-yl)piperidin-4-yl)isoquinolin-3-yl)-6-oxaspiro[2.5]octane-1-carboxamide]",3.39 nM,
"CC1(C(=O)Nc2cc3cc(C4CCN(C5COC5)CC4)c(Cl)cc3cn2)CC1 [Ex-7.3, N-(7-chloro-6-(1-(oxetan-3-yl)piperidin-4-yl)isoquinolin-3-yl)-1-methylcyclopropane-1-carboxamide]",16.6 nM,
"Cc1cc2cnc(NC(=O)C3CC34CCOC4)cc2cc1C1CCN(C2(C)COCC2F)CC1 (single isomer, unassigned) [Ex-15.13, N-(6-(1-(4-fluoro-3-methyltetrahydrofuran-3-yl)piperidin-4-yl)-7-methylisoquinolin-3-yl)-5-oxaspiro[2.4]heptane-1-carboxamide]",2.69 nM,
"CC1C(C(=O)Nc2cc3cc(C4CCN(C5(C)COCC5O)CC4)c(Cl)cc3cn2)C12CCOCC2 (single isomer, unassigned) [Ex-10.7, N-(7-chloro-6-(1-(4-hydroxy-3-methyltetrahydrofuran-3-yl)piperidin-4-yl)isoquinolin-3-yl)-2-methyl-6-oxaspiro[2.5]octane-1-carboxamide]",44.7 nM,
Cn1ncc(C2CC2C(=O)Nc2cc3cc(C4(C#N)CC45CC5)ccc3cn2)c1C(F)(F)F (stereo not shown) [Ex-2.47],457 nM,
"Cc1cc2cnc(NC(=O)C3CC34CCOC4)cc2cc1C1CCN(C2(C)COCC2F)CC1 (single isomer, unassigned) [Ex-15.9, N-(6-(1-(4-fluoro-3-methyltetrahydrofuran-3-yl)piperidin-4-yl)-7-methylisoquinolin-3-yl)-5-oxaspiro[2.4]heptane-1-carboxamide]",2.4 nM,
"Cc1cc2cnc(NC(=O)C3CC4(CC4)C3)cc2cc1C1CCN(C2(C)COCC2O)CC1 (single isomer, unassigned) [Ex-15.2, N-(6-(1-(4-hydroxy-3-methyltetrahydrofuran-3-yl)piperidin-4-yl)-7-methylisoquinolin-3-yl)spiro[2.3]hexane-5-carboxamide]",0.302 nM,
"CC1CC1(C#N)c1ccc2cnc(NC(=O)C3CC3)cc2c1 (single isomer, unassigned) [Ex-18.8, (R or S)-N-(6-(1-cyano-2-methylcyclopropyl)isoquinolin-3-yl)cyclopropanecarboxamide]",5.37 nM,
"CC1(N2CCC(c3cc4cc(NC(=O)C5CC56CCOCC6)ncc4cc3Cl)CC2)COC(C2CC2)C1 (single isomer, unassigned) [Ex-6.17, N-(7-chloro-6-(1-(5-cyclopropyl-3-methyltetrahydrofuran-3-yl)piperidin-4-yl)isoquinolin-3-yl)-6-oxaspiro[2.5]octane-1-carboxamide]",3.55 nM,
"Cn1ncc(C2CC2C(=O)Nc2cc3cc(C4CCN(C5(C)COCC5O)CC4)c(Cl)cc3cn2)c1C(F)(F)F (single isomer, unassigned) [Ex-4.37, N-(7-chloro-6-(1-(4-hydroxy-3-methyltetrahydrofuran-3-yl)piperidin-4-yl)isoquinolin-3-yl)-2-(1-methyl-5-(trifluoromethyl)-1H-pyrazol-4-yl)cyclopropane-1-carboxamide]",0.0813 nM,
"CC1(N2CCC(c3cc4cc(NC(=O)C5CC(c6ccccn6)C5)ncc4cc3Cl)CC2)COCC1O (single isomer, unassigned) [Ex-4.75, N-(7-chloro-6-(1-(4-hydroxy-3-methyltetrahydrofuran-3-yl)piperidin-4-yl)isoquinolin-3-yl)-3-(pyridin-2-yl)cyclobutane-1-carboxamide]",100 nM,
"O=C(C[C@@H](O)C(F)(F)F)Nc1cc2cc(C3CCN(C4COC4)CC3)c(Cl)cc2cn1 [Ex-1.35, (R)-N-(7-chloro-6-(1-(oxetan-3-yl)piperidin-4-yl)isoquinolin-3-yl)-4,4,4-trifluoro-3-hydroxybutanamide]",26.3 nM,
CC(C(=O)Nc1cc2cc(C3CCN(C4(C)COCC4O)CC3)c(Cl)cc2cn1)c1cnn(C)c1 (stereo not shown) [Ex-2.107],0.661 nM,
"CC1(C)CC(C(=O)Nc2cc3cc(C4CCN(C5(C)CCOC5)CC4)c(Cl)cc3cn2)CCO1 (single isomer, unassigned) [Ex-6.46, N-(7-chloro-6-(1-(3-methyltetrahydrofuran-3-yl)piperidin-4-yl)isoquinolin-3-yl)-2,2-dimethyltetrahydro-2H-pyran-4-carboxamide]",1.2 nM,
"N#CC1(c2ccc3cnc(NC(=O)[C@@H]4C[C@@H](O)[C@H](F)C4)cc3c2)CC12CC2 (single isomer, unassigned) [Ex-1.29, (1R,3R,4R)-N-(6-((R or S)-1-cyanospiro[2.2]pentan-1-yl)isoquinolin-3-yl)-3-fluoro-4-hydroxycyclopentane-1-carboxamide]",20.4 nM,
"CC1(C)CC(C(=O)Nc2cc3cc(C4(C#N)CC45CC5)ccc3cn2)CC(C)(C)O1 (single isomer, unassigned) [Ex-1.27, N-(6-((R or S)-1-cyanospiro[2.2]pentan-1-yl)isoquinolin-3-yl)-2,2,6,6-tetramethyltetrahydro-2H-pyran-4-carboxamide]",9.77 nM,
"CC1(N2CCC(c3cc4cc(NC(=O)C5CCC6(CCC6)OC5)ncc4cc3Cl)CC2)COCC1O (single isomer, unassigned) [Ex-4.23, N-(7-chloro-6-(1-(4-hydroxy-3-methyltetrahydrofuran-3-yl)piperidin-4-yl)isoquinolin-3-yl)-5-oxaspiro[3.5]nonane-7-carboxamide]",2.34 nM,
"O=C(Nc1cc2cc(C3CCN([C@@H]4COC[C@@H]4O)CC3)c(Cl)cc2cn1)C1CC12CCOC2 (single isomer, unassigned) [Ex-8.1, N-(7-chloro-6-(1-((3R,4R or 3S,4S)-4-hydroxytetrahydrofuran-3-yl)piperidin-4-yl)isoquinolin-3-yl)-5-oxaspiro[2.4]heptane-1-carboxamide]",,10.0
"Cc1nc(C(=O)Nc2cc3cc(C4CCN(C5COC5)CC4)c(Cl)cc3cn2)co1 [Ex-1.37, N-(7-chloro-6-(1-(oxetan-3-yl)piperidin-4-yl)isoquinolin-3-yl)-2-methyloxazole-4-carboxamide]",12.6 nM,
"O=C(Nc1cc2cc(C3CCN(C4COC4)CC3F)c(Cl)cc2cn1)C1CC1 (single isomer, unassigned) [Ex-14.1, N-(7-chloro-6-((3R,4R,3S,4R,3R,4S or 3S,4S)-3-fluoro-1-(oxetan-3-yl)piperidin-4-yl)isoquinolin-3-yl)cyclopropanecarboxamide]",5.89 nM,
